In patent US20260325487A1 (BS BIOTECHNA SPOLKA AKCYJNA, priority 2023, published 2026):
Read-outs that look alike come from different tables or passages of the source.

Columns and labels:
Assay type in all cases: cell-based
[1] = tested on: SK-MES-1; experiment: SRB anti-proliferative assay, SK-MES-1, with CalcuSyn combination index (Example 1); conditions: Homo sapiens, SK-MES-1, 72 h, read-out: Zah. (inhibition of proliferation)
Method: (§1) Cells were thawed from ampoules stored in liquid nitrogen and cultured in petri dishes in appropriate culture medium according to Table 2, in a humidified 5% CO2 atmosphere at 37° C. Cells were passaged twice weekly using EDTA-Trypsin solution, pH 8. Counted cells with a viability of at least 90% as assessed with Trypan-Blue solution were used for anti-proliferative assays.
(§2) Twenty-four hours before the addition of the test compounds/combinations, cells were seeded into 384-well plates at 50 μL/well and a density of 10^3 cells/well, in the appropriate culture medium.
(§3) Solutions of the compounds were diluted in the test medium-RPMI-1640 and Opti-MEM in a 1:1 ratio, and the medium was supplemented with 2 mM glutamine and 5% fetal bovine serum FBS. After 72 h, colourimetric assessment of cell growth was performed by SRB. […] Unbound dye was removed by washing the plates (4×) in 1% (v/v) acetic acid, and protein-bound dye was extracted with 10 mM unbuffered Tris base and the optical density (A=540 nm) was determined in a BioTek Synergy H4 Hybrid computer microplate reader (BioTek Instruments USA). The entire washing/staining procedure was performed using a BioTek EL406 washing station (BioTek Instruments USA). The raw absorbance results were analysed in Microsoft Excel software using the formula:
(§4) [formula] • Where: • % Zahlnh-inhibition of proliferation • Am—absorbance of wells without cells (medium) • Ak—absorbance of control wells (cells treated with pure culture medium) • Ap—absorbance of wells treated with compounds
(§5) Each compound at the indicated concentrations was tested in triplicate in one experiment. Each experiment was repeated three times. Data analysis was supplemented with synergy assessment using CalcuSyn software. […] A CI value below 0.8 indicates synergism, 0.8-1.2 an additive effect, above 1.2 an antagonism.

[2] = tested on: 8MGBA; experiment: SRB anti-proliferative assay, 8MGBA, molecular combination and nanoparticles, with combination index (Example III); conditions: Homo sapiens, 8-MG-BA, 72 h
Method: Cells were thawed from ampoules stored in liquid nitrogen and cultured in petri dishes in the appropriate culture medium according to Table 16, in a humidified 5% CO2 atmosphere at 37° C. Cells were passaged twice weekly using EDTA-Trypsin solution, pH 8, as a separating agent. Counted cells with a viability of at least 90% as assessed with Trypan-Blue solution were used for anti-proliferation assays.
Twenty-four hours before the addition of the test compounds/combinations, cells were seeded into 384-well plates at 50 μL/well and a density of 10^3 cells/well, in the appropriate culture medium. […] Solutions of the compounds were diluted in the test medium—RPMI-1640 and Opti-MEM in a 1:1 ratio, and the medium was supplemented with 2 mM glutamine and 5% fetal bovine serum FBS.
as §3, with “After” for “Solutions of the compounds were diluted in the test medium-RPMI-1640 and Opti-MEM in a 1:1 ratio, and the medium was supplemented with 2 mM glutamine and 5% fetal bovine serum FBS. After”
as §4, §5

[3] = tested on: NCI-H1975; experiment: SRB anti-proliferative assay, NCI-H1975, with CalcuSyn combination index (Example 1); conditions: Homo sapiens, NCI-H1975, 72 h, read-out: Zah. (inhibition of proliferation)
Method: as §1, §2, §3, §4, §5

[4] = tested on: NCI-H226; experiment: SRB anti-proliferative assay, NCI-H226, with CalcuSyn combination index (Example 1); conditions: Homo sapiens, NCI-H226, 72 h, read-out: Zah. (inhibition of proliferation)
Method: as §1, §2, §3, §4, §5

Compound `C=CCNC1=C2C[C@@H](C)C[C@H](OC)[C@H](O)[C@@H](C)/C=C(\C)[C@H](OC(N)=O)[C@@H](OC)/C=C\C=C(/C)C(=O)NC(=CC1=O)C2=O` [17AAG, 17-AAG (tanespimycin)] has an inhibition at 0.0031 µM [1] of 9.2%, an inhibition at 0.01 µM [1] of 12.7% and an inhibition at 0.03 µM [1] of 55.1%. The inhibition at 0.1 µM [1] was 80%, the inhibition at 0.3124 µM [1] was 85.2% and the inhibition at 1 µM [1] was 86.5%. For the same compound, the inhibition at 3.1392 µM [1] was 86.9%, the inhibition at 10 µM [1] was 87% and the inhibition at 0.0003163 µM ([2]; read-out: Zah. (inhibition of proliferation), 17AAG 0.3163 nM, Tables 18a/19a) was -3.9%. It also gave an inhibition at 0.0003163 µM ([2]; read-out: Zah. (inhibition of proliferation), 17AAG 0.3163 nM, Tables 21a/22a) of 6%, an inhibition at 0.001 µM ([2]; read-out: Zah. (inhibition of proliferation), 17AAG 1 nM, Tables 18a/19a) of 9.8% and an inhibition at 0.001 µM ([2]; read-out: Zah. (inhibition of proliferation), 17AAG 1 nM, Tables 21a/22a) of 15.7%. For the same compound, the inhibition at 0.0032 µM ([2]; read-out: Zah. (inhibition of proliferation), 17AAG 3.2 nM, Tables 18a/19a) was 64.9%, the inhibition at 0.0032 µM ([2]; read-out: Zah. (inhibition of proliferation), 17AAG 3.2 nM, Tables 21a/22a) was 4.7% and the inhibition at 0.01 µM ([2]; read-out: Zah. (inhibition of proliferation), 17AAG 10 nM, Tables 18a/19a) was 89.5%. The inhibition at 0.01 µM ([2]; read-out: Zah. (inhibition of proliferation), 17AAG 10 nM, Tables 21a/22a) was 7.8%, the inhibition at 0.0316 µM ([2]; read-out: Zah. (inhibition of proliferation), 17AAG 31.6 nM, Tables 18a/19a) was 88.5% and the inhibition at 0.0316 µM ([2]; read-out: Zah. (inhibition of proliferation), 17AAG 31.6 nM, Tables 21a/22a) was 20.1%. The inhibition at 0.1 µM ([2]; read-out: Zah. (inhibition of proliferation), 17AAG 100 nM, Tables 18a/19a) was 84.3%, the inhibition at 0.1 µM ([2]; read-out: Zah. (inhibition of proliferation), 17AAG 100 nM, Tables 21a/22a) was 37.4% and the inhibition at 0.3163 µM ([2]; read-out: Zah. (inhibition of proliferation), 17AAG 316.3 nM, Tables 18a/19a) was 86%. For the same compound, the inhibition at 0.3163 µM ([2]; read-out: Zah. (inhibition of proliferation), 17AAG 316.3 nM, Tables 21a/22a) was 64.6%, the inhibition at 1 µM ([2]; read-out: Zah. (inhibition of proliferation), 17AAG 1000 nM, Tables 18a/19a) was 91.9% and the inhibition at 1 µM ([2]; read-out: Zah. (inhibition of proliferation), 17AAG 1000 nM, Tables 21a/22a) was 81.1%. For the same compound, the inhibition at 0.0003163 µM ([2]; read-out: Zah. (inhibition of proliferation), 72 h, 17AAG 0.3163 nM) was -3.9%, the inhibition at 0.001 µM ([2]; read-out: Zah. (inhibition of proliferation), 72 h, 17AAG 1 nM) was 9.8% and the inhibition at 0.0032 µM ([2]; read-out: Zah. (inhibition of proliferation), 72 h, 17AAG 3.2 nM) was 64.9%. It also gave an inhibition at 0.01 µM ([2]; read-out: Zah. (inhibition of proliferation), 72 h, 17AAG 10 nM) of 89.5%, an inhibition at 0.0316 µM ([2]; read-out: Zah. (inhibition of proliferation), 72 h, 17AAG 31.6 nM) of 88.5% and an inhibition at 0.1 µM ([2]; read-out: Zah. (inhibition of proliferation), 72 h, 17AAG 100 nM) of 84.3%. The inhibition at 0.3163 µM ([2]; read-out: Zah. (inhibition of proliferation), 72 h, 17AAG 316.3 nM) was 86%, the inhibition at 1 µM ([2]; read-out: Zah. (inhibition of proliferation), 72 h, 17AAG 1000 nM) was 91.9% and the inhibition at 0.0031 µM [3] was 10%. For the same compound, the inhibition at 0.01 µM [3] was 25.2%, the inhibition at 0.0314 µM [3] was 66.7% and the inhibition at 0.1 µM [3] was 84.1%. For the same compound, the inhibition at 0.3155 µM [3] was 87.6%, the inhibition at 1 µM [3] was 88.5% and the inhibition at 3.1546 µM [3] was 88.4%. The inhibition at 10 µM [3] was 86.6%, the inhibition at 0.0031 µM [4] was 19.3% and the inhibition at 0.01 µM [4] was 27.3%. The inhibition at 0.03 µM [4] was 32%, the inhibition at 0.1 µM [4] was 43.8% and the inhibition at 0.3124 µM [4] was 54.8%. The inhibition at 1 µM [4] was 60.4%, the inhibition at 3.1392 µM [4] was 71.9% and the inhibition at 10 µM [4] was 72.6%.
